Assay [1] relates to HS-Apt-OTC (DNA, aptamer) GGGGGCACACATGTAGGTGCTGTCCAGGTGTGGTTGTGGT
In words: LSPR and QCM-D selectivity test. To be noted: 137 mM NaCl, 2.7 mM KCl; PBS pH 7.4; 100 nM compound.

For assay [2], the system named is HS-Apt-PEN (DNA, aptamer) CTGAATTGGATCTCTCTTCTTGAGCGATCTCCACA
In words: QCM-D on gold electrode, Langmuir fit of 3rd harmonic frequency. To be noted: 137 mM NaCl, 2.7 mM KCl; PBS pH 7.4; flow; immobilised aptamer; no clear plateau to 500 nM; some non-specific binding likely.

For assay [3] the test system is unchanged. In words: LSPR on AuNPs, Langmuir fit. As to conditions: 137 mM NaCl, 2.7 mM KCl; PBS pH 7.4; flow; MCH and salmon sperm DNA passivation; immobilised aptamer.

Among the data in publication PMC12564596 (2025) are binding and KD values, retold here.

Broadly, the KD is a measure of binding affinity in units of concentration. Read a low KD as tighter binding.

As to `CN(C)[C@@H]1C(=O)C(C(N)=O)=C(O)[C@@]2(O)C(=O)C3=C(O)c4c(O)cccc4[C@@](C)(O)[C@H]3[C@H](O)[C@@H]12`, the binding entry in assay [1] is reported as “yes”. Consider `CC1(C)S[C@@H]2[C@H](NC(=O)Cc3ccccc3)C(=O)N2[C@H]1C(=O)O`, for which the KD in assay [2] was determined as 50 nM; in assay [3] it was 20 nM.
